Consider 10 molecules from paper PMC9143577, “Cationic Geminoid Peptide Amphiphiles Inhibit DENV2 Protease, Furin, and Viral Replication” (Molecules, 2022).

“Also recorded” adds a separate entry of the source. Where a SMILES comes first, the peptide text is derived from it. The star is where a group is joined. Palmitoyl = CCCCCCCCCCCCCCCC(=O)*; NHhexadecyl = CCCCCCCCCCCCCCCCN*; AMC = Cc1cc(=O)oc2cc(N*)ccc12; Cbz = O=C(OCc1ccccc1)*

The target of one data set is DENV2 protease (Dengue virus type 2, UniProt P14340). Details: the vector with CF40 fused to NS3pro was used; hexahistidine (N); made in house; host or cells: E. coli strain SG13009; method as in PMID 17184724. Particulars: ref [23], cited from earlier work.
DENV2 protease, sequence (P14340 1476-1653): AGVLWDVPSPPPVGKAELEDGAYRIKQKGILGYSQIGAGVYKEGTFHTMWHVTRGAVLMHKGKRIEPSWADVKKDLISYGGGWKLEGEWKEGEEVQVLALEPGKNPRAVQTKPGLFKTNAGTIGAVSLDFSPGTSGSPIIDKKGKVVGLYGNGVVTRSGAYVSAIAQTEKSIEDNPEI
DENV2 protease, sequence (P14340 1398-1437): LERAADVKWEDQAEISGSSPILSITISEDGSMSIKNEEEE
Data set [1] addresses T1, human furin (Homo sapiens, UniProt P09958).
Target sequence in this assay (P09958 27-794): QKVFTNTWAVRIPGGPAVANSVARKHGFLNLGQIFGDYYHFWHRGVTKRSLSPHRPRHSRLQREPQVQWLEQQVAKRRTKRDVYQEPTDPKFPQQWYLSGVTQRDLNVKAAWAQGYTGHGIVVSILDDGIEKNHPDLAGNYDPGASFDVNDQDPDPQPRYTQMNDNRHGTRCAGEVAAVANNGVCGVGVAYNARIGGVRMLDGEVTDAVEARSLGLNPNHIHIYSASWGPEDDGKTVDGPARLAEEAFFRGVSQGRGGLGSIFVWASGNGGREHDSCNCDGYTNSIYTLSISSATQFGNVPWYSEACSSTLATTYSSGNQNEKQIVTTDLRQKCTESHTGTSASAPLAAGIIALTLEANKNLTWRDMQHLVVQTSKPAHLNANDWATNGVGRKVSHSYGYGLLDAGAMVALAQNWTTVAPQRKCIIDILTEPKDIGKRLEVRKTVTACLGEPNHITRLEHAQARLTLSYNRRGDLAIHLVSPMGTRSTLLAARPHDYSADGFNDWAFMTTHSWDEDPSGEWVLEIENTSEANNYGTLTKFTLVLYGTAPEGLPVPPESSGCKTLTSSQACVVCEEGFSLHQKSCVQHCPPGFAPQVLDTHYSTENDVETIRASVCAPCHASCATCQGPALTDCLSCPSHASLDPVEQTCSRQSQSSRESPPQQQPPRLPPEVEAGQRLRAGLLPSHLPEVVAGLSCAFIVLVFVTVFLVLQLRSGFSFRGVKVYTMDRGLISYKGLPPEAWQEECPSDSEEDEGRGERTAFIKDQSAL
The target of data set [2] is trypsin.
For data set [3], the target named is DENV2 protease (NS2B-NS3 construct CF40-…-NS3) (dengue virus serotype 2).
Data set [4] is described as follows: Critical micelle concentration by pyrene fluorescence. Particulars: pure water. In kind it is physicochemical. The procedure: Pyrene was used as a probe to study the changes in its fluorescence, in particular the ratio (I1/I3) of the intensities I1 and I3 […] 373 and 383 nm, respectively. An abrupt change in this ratio with increasing surfactant concentration points to an increase in hydrophobicity of the environment of the probe corresponding to the formation of aggregates. See Supporting Information for details.
Determ ination of the critical m icelle concentrat ion (CMC)
A solution of 5 mg pyrene in methanol (10 mL) was prepared and diluted 20 times. 50 µ L from the dil uted solution was added to geminoid solutions in water to a final volume of 3 mL. The geminoid samples were made from a stock solution of 500 µ M in water in a concentration range from 5 to 200 µ M. The fluorescence spectra were then measured after 1 hour wi th the […] set to 334 nm and emission range 350- 500 nm, excitation slit […], emission slit […] and at 25 °C. The ratio of the intensities was then plotted against the geminoid concentration, and the CMC is calculated from the intersection point of the best fits to the data points below and above it (Fig ure S5).
(§1) Concentration (µM) Concentration (µM)
Concentration (µM)Concentration (µM) Concentration (µM)Concentration (µM)
(1 picture or pasted object on this page, not shown here)

The subject of data set [5] is wildtype DENV2 (DENV2 NGC). In kind it is cell-based, DENV2 New Guinea strain. Particulars: percentage of infected cells, 2 days after infection; for EC50: LLC-MK2 cells, read-out: DENV Replication in LLC-MK2 Cells EC50. The procedure:
LLC-MK2 (Monkey Rhesus Kidney cells; CCL-7.1) were passaged in assay medium (EMEM (Lonza Cat No: BESP069F) supplemented with 10% heat-inactivated FCS (Lonza), 2% Pen/strep (Gibco), 2% L-Glutamine (Gibco), 2% Hepes (Lonza), and 1% sodium bicarbonate (Lonza)) prior to use in the antiviral assay. Cells were seeded in 96-well plates (10^5 cells/well) in assay medium to be exposed 16–24 h later to compounds and viruses. The plates were incubated at 37 °C/5% CO2 overnight to allow for cell adherence.
Compounds were solubilized in DMSO and evaluated using two-fold serial dilutions (8-points dose-response curves starting at a concentration of 50 µM) in duplicate for the antiviral assays. Compounds were diluted in assay medium at 1× test concentrations. Ribavirin (Sigma Aldrich, Amsterdam, The Netherlands) was evaluated as a positive control compound in the antiviral assays.
DENV2 New Guinea strain was grown in AP-61 insect cells (in-house cell bank) in complete Leibovitz medium containing 1% pen/strep (Gibco), 1% L-glutamin (Gibco), 0.5% Hepes (Lonza), 0.5% sodium bicarbonate (Lonza), and 10% tryptose phosphate for the production of stock virus pools. On the day of cellular infection, an aliquot of virus was removed from the freezer (−80 °C) and allowed to thaw in water in a biological safety cabinet. Virus was diluted into assay medium (10^4 TCID50), and 100 µL of this was added to each well, resulting in a TCID50 of 100. Cells were incubated for 2 h at 37 °C/5% CO2 and washed 3 times with blank assay medium. Directly after washing, 100 µL of the compound dilutions were added to each well.
Each plate contained cell control wells (cells only), virus control wells (cells plus virus), duplicate drug toxicity wells per compound (cells plus drug only), as well as duplicate experimental wells (drug plus cells plus virus).
Virus-infected cells were visualised using a DENV2 immunoperoxidase staining protocol. Two days after infection, cells were inactivated with ethanol 70% for 30 min and washed with PBS. Fixed plates were incubated with PBS containing 0.05% H2O2 for 20 min at 37 °C and washed again 3 times with PBS. Plates were incubated for 1 h with 50 µL monoclonal anti-DENV-2 NS1 antibody (Millipore; diluted 1:500 in EMEM). Samples were washed once with PBS containing 0.05% Tween20 and twice with PBS only. Secondary polyclonal goat anti-mouse IgG HRP (Dako; diluted 1:2000) was added 50 µL per well and incubated for 1 h at 37 °C in the dark. […] Bidest water was added after removal of the substrate solution, and all virus-positive cells per well (marked by brown/red staining) were counted under a microscope. […]

The next data set concerns DENV2 replicon. Particulars: DENV2 HeLa replicon cells treated for 2 days; for inhibition of luciferase activity (DENV2 replicon): 10 µM. On the procedure:
(§2) To investigate the effect of geminoids on viral replication, we used HeLa cells containing a DENV2 replicon. Instead of the structural proteins of DENV2, the replicon encodes a luciferase reporter that can be used as a readout for DENV2 protease dependent virus replication. Cell viability was assessed on the same cells using a colourimetric assay based on 3-(4,5-dimethylthiazol-2-yl)-5-(3-carboxymethoxyphenyl)-2H-tetrazolium (MTS) reduction, and by light microscopy. […] The viability of unmodified HeLa cells after treatment with these compounds was also tested in a separate experiment using the Celltiter Blue Viability Assay (Promega, see Supporting Information) in the concentration range of 0.8–50 μM.
(§3) The replicon assay was carried out as described earlier using HeLa cells that contain a stably replicating DENV2 replicon expressing a luciferase reporter gene. The amphiphilic inhibitors were added as concentrated solutions in DMSO; the same amount of DMSO was used as the blank experiment, with the viral inhibitor ribavirin as a positive control. Luciferase activity and cell viability were assessed as described previously.

Data set [6] deals with trypsin. The data set can be described thus: Trypsin inhibition assay with Z-FR-MCA. In kind it is biochemical. Particulars: 4 nM trypsin, 11.4 μM Z-FR-MCA; 100 mM Tris.HCl, pH 8.0, 10 mM CaCl2; read-out: IC50 (MCA Substrates) Trypsin. On the procedure: The assay was carried out in 100 mM Tris.HCl, 10 mM CaCl2, pH 8.0, with 4 nM enzyme and 11.4 µM Z-FR-MCA substrate.
Data set [7] has as its target T1, human furin. Nature of the data set: Furin inhibition assay with MCA substrate (Ac-RVRR-MCA). In kind it is biochemical. Particulars: 0.76 nM furin, pH 7.0, 37 °C, read-out: IC50 (MCA Substrates) Furin. An excerpt:
Enzyme expression and purification
DENV2 Protease Preparation. The enzyme was expressed and purified as previously described (ref. S1). […]
subjected to sonication, and centrifuged again. The supernatant was collected and passed […]
Human Furin Preparation. The enzyme was expressed and purified as previously described (ref. S3). Briefly, The PCMV-Fur_S vector containing cDNA […]
Human furin was purifi ed […]
substrate Abz-[…]- EDDnp.
Target sequence in this assay (P09958 108-576 limits assumed): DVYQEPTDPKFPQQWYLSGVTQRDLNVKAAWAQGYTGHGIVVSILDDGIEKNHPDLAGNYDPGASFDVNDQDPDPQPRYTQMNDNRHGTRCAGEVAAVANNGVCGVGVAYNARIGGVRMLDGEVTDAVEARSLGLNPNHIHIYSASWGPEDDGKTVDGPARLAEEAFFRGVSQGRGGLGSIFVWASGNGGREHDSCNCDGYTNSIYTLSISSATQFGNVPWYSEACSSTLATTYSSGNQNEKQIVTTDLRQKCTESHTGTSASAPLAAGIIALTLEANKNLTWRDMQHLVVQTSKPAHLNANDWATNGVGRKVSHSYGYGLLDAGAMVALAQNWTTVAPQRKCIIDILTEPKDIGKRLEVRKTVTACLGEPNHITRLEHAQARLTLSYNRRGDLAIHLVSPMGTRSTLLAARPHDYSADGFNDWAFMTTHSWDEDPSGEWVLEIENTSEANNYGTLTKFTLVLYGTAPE

A further data set deals with HeLa cells (wildtype). Nature of the data set: Celltiter Blue Viability Assay on unmodified HeLa cells. Particulars: 24 h, 0.8–50 μM, highest concentration. On the procedure:
as §2, §1

In data set [8] the test system is DENV2 HeLa replicon cells. Particulars: 2 days, 0.3 to 10 µM. The procedure: as §2, §3

With Cbz-Arg-Arg-{AMC}, the “kcat for hydrolysis of the substrate” value on DENV2 protease was 0.11 s⁻¹. The Km at DENV2 protease (read-out: KM for hydrolysis of the substrate) is 247 µM.
The molecule “C15H31C(O)-Lys-(Ala)-Lys-NHC16H33 (C16-KAK-C16) (peptide)” came in with an IC50 of inhibition of furin activity (0.76 nM furin, substrate Ac-RVRR-MCA, 10 mM MES pH 7.0, 37 °C) with human furin [1] of 3.57 µM. Further, the IC50 of inhibition of trypsin activity (4 nM trypsin, 11.4 µM Z-FR-MCA, 100 mM Tris.HCl pH 8.0, 10 mM CaCl2) with trypsin [2] was 17.2 µM. Further, in data set [3], the IC50 of inhibition of DENV2 protease activity (20 nM enzyme, substrate Z-RR-MCA, 50 mM Tris.HCl pH 9.0, 20% glycerol, 37 °C) was 0.66 µM and the IC50 of inhibition of DENV2 protease activity (50 µM Tyr(3-NO2) substrate, 50 mM Tris.HCl pH 9.0, 10% ethylene glycol, 0.0016% Brij 58) amounted to 2.3 µM.
As to `CCCCCCCCCCCCCCCCNC(=O)[C@H](CCCCN)NC(=O)CNC(=O)[C@H](CCCCN)NC(=O)CCCCCCCCCCCCCCC` [Compound 3a], the “CMC (Critical Micelle Concentration)” value in data set [4] lay in the range of 55 to 72 µM. Moreover, the EC50 in data set [5] was 12.7 ± 1.1 µM. Moreover, in the data set on DENV2 replicon, the “inhibition of luciferase activity (DENV2 replicon)” value (“inhibition of luciferase activity” for short) amounted to 38%. Further, the IC50 in the data set with trypsin [6] came out at 41 ± 2 µM.
Consider “C15H31C(O)-Lys-(Gly)-Lys-NHC16H33 (C16-KGK-C16) (peptide)”, for which the IC50 of inhibition of trypsin activity (4 nM trypsin, 11.4 µM Z-FR-MCA, 100 mM Tris.HCl pH 8.0, 10 mM CaCl2) with trypsin [2] came to 41 µM. In [3], this molecule yielded an IC50 of inhibition of DENV2 protease activity (20 nM enzyme, substrate Z-RR-MCA, 50 mM Tris.HCl pH 9.0, 20% glycerol, 37 °C) of 1.94 µM and an IC50 of inhibition of DENV2 protease activity (50 µM Tyr(3-NO2) substrate, 50 mM Tris.HCl pH 9.0, 10% ethylene glycol, 0.0016% Brij 58) of 2.1 µM.
Take `CCCCCCCCCCCCCCCCNC(=O)[C@H](CCCCN)NC(=O)[C@H](C)NC(=O)[C@H](C)NC(=O)[C@H](CCCCN)NC(=O)CCCCCCCCCCCCCCC` [Compound 2b, C15H31C(O)-Lys-(Ala)2-Lys-NHC16H33.2TFA] (Palmitoyl-KAAK-NHhexadecyl): in data set [4], the “CMC (Critical Micelle Concentration)” value is on record as 41 µM. For the same molecule, the EC50 in data set [5] came to 3.1 ± 0.7 µM. The 50% inhibitory concentration (IC50) at human furin [7] worked out at 2.14 ± 0.1 µM; in the data set with trypsin [6], 20.9 ± 0.34 µM. In the data set on DENV2 replicon, the “inhibition of luciferase activity” value is reported as 47%.
Consider `CCCCCCCCCCCCCCCCNC(=O)[C@H](CCCCN)NC(=O)[C@H](C)NC(=O)[C@H](CCCCN)NC(=O)CCCCCCCCCCCCCCC` [Compound 2a, C15H31C(O)-Lys-(Ala)-Lys-NHC16H33.2TFA], for which, in data set [4], the “CMC (Critical Micelle Concentration)” value was 48 to 58 µM. In [5], the EC50 was 4.1 ± 1.5 µM. For the same molecule, the concentration for half-maximal inhibition (IC50) on human furin [7] was 3.57 ± 0.18 µM; in the data set with trypsin [6], 17.2 ± 0.66 µM. Besides, the “reduction of luciferase activity” value with DENV2 replicon (3 µM) is listed as 39%. For the same molecule, the “inhibition of luciferase activity” value in the data set with DENV2 replicon was determined as 62%.
“C15H31C(O)-Lys-Lys-NHC16H33 (C16-KK-C16) (peptide)” returned an IC50 of inhibition of trypsin activity (4 nM trypsin, 11.4 µM Z-FR-MCA, 100 mM Tris.HCl pH 8.0, 10 mM CaCl2) with trypsin [2] of 85.7 µM. The IC50 of inhibition of DENV2 protease activity (20 nM enzyme, substrate Z-RR-MCA, 50 mM Tris.HCl pH 9.0, 20% glycerol, 37 °C) in data set [3] came to 4.25 µM.
Regarding `CCCCCCCCCCCCCCCCNC(=O)[C@H](CCCCN)NC(=O)CNC(=O)CNC(=O)[C@H](CCCCN)NC(=O)CCCCCCCCCCCCCCC` [Compound 3b] (Palmitoyl-KGGK-NHhexadecyl), in data set [4], the “CMC (Critical Micelle Concentration)” value came to 30 µM. For the same molecule, in data set [5], the “DENV Replication in LLC-MK2 Cells EC50” value is “not active”. Also, the “toxicity in Celltiter Blue Viability Assay” value in the data set with HeLa cells (wildtype) is “slight toxicity; also recorded: slight toxicities”. In addition, the “cell viability (MTS assay), relative to DMSO control” value in data set [8] is listed as “considerable cytotoxicity”.

B1: C15H31C(O)-Lys-(Ala)2-Lys-NHC16H33 (C16-KA2K-C16) (peptide)
peptide: Palmitoyl-KAAK-NHhexadecyl
SMILES: CCCCCCCCCCCCCCCCNC(=O)[C@H](CCCCN)NC(=O)[C@H](C)NC(=O)[C@H](C)NC(=O)[C@H](CCCCN)NC(=O)CCCCCCCCCCCCCCC
In the case of B1, in the data set with human furin [1], the IC50 of inhibition of furin activity (0.76 nM furin, substrate Ac-RVRR-MCA, 10 mM MES pH 7.0, 37 °C) stood at 2.14 µM. This molecule showed an IC50 of inhibition of trypsin activity (4 nM trypsin, 11.4 µM Z-FR-MCA, 100 mM Tris.HCl pH 8.0, 10 mM CaCl2) with trypsin [2] of 20.9 µM. In [3], this molecule came in with an IC50 of inhibition of DENV2 protease activity (20 nM enzyme, substrate Z-RR-MCA, 50 mM Tris.HCl pH 9.0, 20% glycerol, 37 °C) of 0.8 µM and an IC50 of inhibition of DENV2 protease activity (50 µM Tyr(3-NO2) substrate, 50 mM Tris.HCl pH 9.0, 10% ethylene glycol, 0.0016% Brij 58) of 1.4 µM.

B2: C15H31C(O)-Lys-(Gly)2-Lys-NHC16H33 (C16-KG2K-C16) (peptide)
peptide: Palmitoyl-KGGK-NHhexadecyl
SMILES: CCCCCCCCCCCCCCCCNC(=O)[C@H](CCCCN)NC(=O)CNC(=O)CNC(=O)[C@H](CCCCN)NC(=O)CCCCCCCCCCCCCCC
As to B2, in [3], the IC50 of inhibition of DENV2 protease activity (20 nM enzyme, substrate Z-RR-MCA, 50 mM Tris.HCl pH 9.0, 20% glycerol, 37 °C) is 3.69 µM and the IC50 of inhibition of DENV2 protease activity (50 µM Tyr(3-NO2) substrate, 50 mM Tris.HCl pH 9.0, 10% ethylene glycol, 0.0016% Brij 58) amounted to 10.2 µM.
